Laboratory results taken from ChEMBL document CHEMBL5727468, “Piperidine compounds as PCSK9 inhibitors” (2019).

What follows are compounds tested against Proprotein convertase subtilisin/kexin type 9 (Homo sapiens, UniProt Q8NBP7) (assay: In Vitro Screening Experiment: 1. […] Data Analysis:Date was analyzed with Prismsoftware (nonlinear regression (Sigmoidal dose-response-variable slope)Inhibition ratio %=100*(Sample reading−LC reading)/(HC reading−LC reading).).
Chain of Proprotein convertase subtilisin/kexin type 9 (Q8NBP7 31-152 limits assumed): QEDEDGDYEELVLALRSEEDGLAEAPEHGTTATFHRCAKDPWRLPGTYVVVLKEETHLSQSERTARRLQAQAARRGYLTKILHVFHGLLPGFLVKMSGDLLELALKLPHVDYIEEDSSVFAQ
Chain of Proprotein convertase subtilisin/kexin type 9 (Q8NBP7 153-692 limits assumed): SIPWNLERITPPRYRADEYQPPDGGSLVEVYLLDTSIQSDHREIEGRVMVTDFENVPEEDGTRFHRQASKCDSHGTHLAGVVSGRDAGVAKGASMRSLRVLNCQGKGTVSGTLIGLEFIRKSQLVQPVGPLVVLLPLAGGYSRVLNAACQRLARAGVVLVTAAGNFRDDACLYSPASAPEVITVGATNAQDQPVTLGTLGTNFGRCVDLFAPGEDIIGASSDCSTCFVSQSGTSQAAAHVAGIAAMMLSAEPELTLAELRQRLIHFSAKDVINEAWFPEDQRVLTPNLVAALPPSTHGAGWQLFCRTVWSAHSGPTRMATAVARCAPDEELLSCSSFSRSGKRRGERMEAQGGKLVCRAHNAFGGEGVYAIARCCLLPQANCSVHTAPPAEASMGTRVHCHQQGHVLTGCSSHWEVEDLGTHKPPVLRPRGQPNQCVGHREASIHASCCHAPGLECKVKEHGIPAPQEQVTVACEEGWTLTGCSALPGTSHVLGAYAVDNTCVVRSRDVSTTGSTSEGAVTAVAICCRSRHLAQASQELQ

IC50, < 10 µM:
COC1C(c2ccc(C(=O)N(c3ncccc3Cl)[C@@H]3CCCNC3)cc2)=NOC1(C)C (some centres not stated), CC1(C)ON=C(c2ccc(C(=O)N(c3ncccc3C3CC3)[C@@H]3CCCNC3)cc2)C1=O, CCc1cccnc1N(C(=O)c1ccc(C2=NOC(C)(C)C2=O)cc1)[C@@H]1CCCNC1, CC1(C)ON=C(c2ccc(C(=O)N(c3nccc4ccccc34)[C@@H]3CCCNC3)cc2)C1=O, COCCOC1C(c2ccc(C(=O)N(c3ncccc3C)[C@@H]3CCCNC3)cc2)=NOC1(C)C (some centres not stated), Cc1cccnc1N(C(=O)c1ccc(C2=NOC(C)(C)C2(C)O)cc1)[C@@H]1CCCNC1 (some centres not stated), Cc1cccnc1N(C(=O)c1ccc(C2=NOC(C)(C)C2=O)cn1)[C@@H]1CCCNC1
